These results are taken from ChEMBL document CHEMBL3991601, “The target landscape of clinical kinase drugs” (Science, 2017).

In test [1] the target is STE20-like serine/threonine-protein kinase (Homo sapiens, UniProt Q9H2G2).
In test [2] the target is T1, Non-receptor tyrosine-protein kinase TNK1 (Homo sapiens, UniProt Q13470).
T1 sequence (Q13470 whole entry): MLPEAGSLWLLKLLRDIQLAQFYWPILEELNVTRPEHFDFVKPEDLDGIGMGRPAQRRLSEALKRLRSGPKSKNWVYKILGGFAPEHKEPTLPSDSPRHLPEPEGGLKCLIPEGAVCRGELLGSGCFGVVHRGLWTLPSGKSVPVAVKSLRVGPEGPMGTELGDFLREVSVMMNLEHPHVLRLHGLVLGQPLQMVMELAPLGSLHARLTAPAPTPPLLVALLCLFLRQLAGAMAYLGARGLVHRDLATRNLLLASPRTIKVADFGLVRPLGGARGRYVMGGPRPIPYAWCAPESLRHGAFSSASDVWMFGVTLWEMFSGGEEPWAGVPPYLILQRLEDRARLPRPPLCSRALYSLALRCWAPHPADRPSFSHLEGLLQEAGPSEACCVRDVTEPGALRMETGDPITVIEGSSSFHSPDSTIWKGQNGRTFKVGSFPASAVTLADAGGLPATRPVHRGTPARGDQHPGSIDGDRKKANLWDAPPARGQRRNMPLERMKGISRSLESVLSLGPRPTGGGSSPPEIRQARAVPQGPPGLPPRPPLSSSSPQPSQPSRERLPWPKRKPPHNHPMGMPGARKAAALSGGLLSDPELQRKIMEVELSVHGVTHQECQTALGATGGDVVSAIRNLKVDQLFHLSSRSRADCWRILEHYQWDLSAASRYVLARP

Test [3] has as its target Ribosomal protein S6 kinase alpha-6 (Homo sapiens, UniProt Q9UK32).
The target in test [4] is Rho-associated protein kinase 1 (Homo sapiens, UniProt Q13464).
In test [5] the target is Mitotic checkpoint serine/threonine-protein kinase BUB1 (Homo sapiens, UniProt O43683).
For test [6], the target named is S-adenosylmethionine synthase isoform type-2 (Homo sapiens, UniProt P31153).
Test [7] deals with Mitogen-activated protein kinase kinase kinase kinase 4 (Homo sapiens, UniProt O95819).
Test [8] deals with Non-receptor tyrosine-protein kinase TYK2 (Homo sapiens, UniProt P29597).
In test [9] the target is T2, Dynamin-like GTPase OPA1, mitochondrial (Homo sapiens, UniProt O60313).
T2 sequence (O60313 whole entry): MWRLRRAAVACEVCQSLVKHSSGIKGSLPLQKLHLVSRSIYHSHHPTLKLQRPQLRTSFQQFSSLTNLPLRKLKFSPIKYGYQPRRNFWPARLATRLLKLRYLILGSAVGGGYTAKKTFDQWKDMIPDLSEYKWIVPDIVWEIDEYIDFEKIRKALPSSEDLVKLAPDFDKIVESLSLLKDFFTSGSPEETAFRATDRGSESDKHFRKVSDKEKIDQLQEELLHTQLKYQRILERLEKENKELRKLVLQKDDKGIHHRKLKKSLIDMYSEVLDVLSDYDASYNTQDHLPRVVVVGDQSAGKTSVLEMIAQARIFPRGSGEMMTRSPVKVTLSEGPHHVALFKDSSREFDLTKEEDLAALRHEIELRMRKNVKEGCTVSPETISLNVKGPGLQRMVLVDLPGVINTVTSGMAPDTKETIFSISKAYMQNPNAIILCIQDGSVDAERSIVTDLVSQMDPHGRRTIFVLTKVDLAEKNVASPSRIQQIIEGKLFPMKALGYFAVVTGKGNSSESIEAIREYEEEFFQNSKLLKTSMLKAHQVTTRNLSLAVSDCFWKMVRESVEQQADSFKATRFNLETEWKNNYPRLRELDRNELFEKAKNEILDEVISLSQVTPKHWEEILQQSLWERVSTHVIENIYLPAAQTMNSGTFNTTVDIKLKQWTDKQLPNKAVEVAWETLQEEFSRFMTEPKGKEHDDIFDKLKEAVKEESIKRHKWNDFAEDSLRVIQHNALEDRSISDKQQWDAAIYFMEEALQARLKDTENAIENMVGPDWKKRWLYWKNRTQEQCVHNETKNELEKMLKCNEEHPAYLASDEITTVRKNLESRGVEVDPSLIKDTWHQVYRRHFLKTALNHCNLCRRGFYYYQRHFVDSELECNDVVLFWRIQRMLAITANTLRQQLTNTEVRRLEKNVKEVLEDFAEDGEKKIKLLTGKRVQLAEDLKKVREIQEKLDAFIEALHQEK

The next test deals with Adenosine kinase (Homo sapiens, UniProt P55263).
Test [10] concerns the target Cyclin-dependent kinase 17 (Homo sapiens, UniProt Q00537).
The target of test [11] is Serine/threonine-protein kinase 26 (Homo sapiens, UniProt Q9P289).
Test [12] has as its target Dual specificity protein kinase CLK1 (Homo sapiens, UniProt P49759).
In test [13] the target is Proto-oncogene tyrosine-protein kinase Src (Homo sapiens, UniProt P12931).
Test [14] deals with Hepatocyte growth factor receptor (Homo sapiens, UniProt P08581).
For test [15], the target named is Maternal embryonic leucine zipper kinase (Homo sapiens, UniProt Q14680).
The target in test [16] is 5'-AMP-activated protein kinase catalytic subunit alpha-1 (Homo sapiens, UniProt Q13131).
For a further test, the target named is T3, Scaffold protein ILK (Homo sapiens, UniProt Q13418).
T3 sequence (Q13418 whole entry): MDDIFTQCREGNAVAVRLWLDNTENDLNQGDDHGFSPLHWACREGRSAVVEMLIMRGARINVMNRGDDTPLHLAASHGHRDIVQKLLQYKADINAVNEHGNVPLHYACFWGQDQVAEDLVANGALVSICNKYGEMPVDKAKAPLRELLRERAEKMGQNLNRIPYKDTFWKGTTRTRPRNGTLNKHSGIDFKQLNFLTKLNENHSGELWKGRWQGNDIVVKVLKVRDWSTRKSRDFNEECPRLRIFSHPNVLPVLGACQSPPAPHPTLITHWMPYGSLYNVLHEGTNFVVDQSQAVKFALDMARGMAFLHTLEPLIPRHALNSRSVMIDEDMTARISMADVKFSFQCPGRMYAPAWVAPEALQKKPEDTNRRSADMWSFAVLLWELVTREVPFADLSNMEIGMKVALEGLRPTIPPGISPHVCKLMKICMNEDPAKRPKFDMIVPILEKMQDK

pKd: −log10 of the molar value. The source made the active and inactive calls. For most assays here, no stated cut-off is given here; in the data, actives have a measured Kd and inactives only a lower limit. Where only a bound is given, the exact number is not on record here.

Sequence of Non-receptor tyrosine-protein kinase TYK2 (P29597 whole entry): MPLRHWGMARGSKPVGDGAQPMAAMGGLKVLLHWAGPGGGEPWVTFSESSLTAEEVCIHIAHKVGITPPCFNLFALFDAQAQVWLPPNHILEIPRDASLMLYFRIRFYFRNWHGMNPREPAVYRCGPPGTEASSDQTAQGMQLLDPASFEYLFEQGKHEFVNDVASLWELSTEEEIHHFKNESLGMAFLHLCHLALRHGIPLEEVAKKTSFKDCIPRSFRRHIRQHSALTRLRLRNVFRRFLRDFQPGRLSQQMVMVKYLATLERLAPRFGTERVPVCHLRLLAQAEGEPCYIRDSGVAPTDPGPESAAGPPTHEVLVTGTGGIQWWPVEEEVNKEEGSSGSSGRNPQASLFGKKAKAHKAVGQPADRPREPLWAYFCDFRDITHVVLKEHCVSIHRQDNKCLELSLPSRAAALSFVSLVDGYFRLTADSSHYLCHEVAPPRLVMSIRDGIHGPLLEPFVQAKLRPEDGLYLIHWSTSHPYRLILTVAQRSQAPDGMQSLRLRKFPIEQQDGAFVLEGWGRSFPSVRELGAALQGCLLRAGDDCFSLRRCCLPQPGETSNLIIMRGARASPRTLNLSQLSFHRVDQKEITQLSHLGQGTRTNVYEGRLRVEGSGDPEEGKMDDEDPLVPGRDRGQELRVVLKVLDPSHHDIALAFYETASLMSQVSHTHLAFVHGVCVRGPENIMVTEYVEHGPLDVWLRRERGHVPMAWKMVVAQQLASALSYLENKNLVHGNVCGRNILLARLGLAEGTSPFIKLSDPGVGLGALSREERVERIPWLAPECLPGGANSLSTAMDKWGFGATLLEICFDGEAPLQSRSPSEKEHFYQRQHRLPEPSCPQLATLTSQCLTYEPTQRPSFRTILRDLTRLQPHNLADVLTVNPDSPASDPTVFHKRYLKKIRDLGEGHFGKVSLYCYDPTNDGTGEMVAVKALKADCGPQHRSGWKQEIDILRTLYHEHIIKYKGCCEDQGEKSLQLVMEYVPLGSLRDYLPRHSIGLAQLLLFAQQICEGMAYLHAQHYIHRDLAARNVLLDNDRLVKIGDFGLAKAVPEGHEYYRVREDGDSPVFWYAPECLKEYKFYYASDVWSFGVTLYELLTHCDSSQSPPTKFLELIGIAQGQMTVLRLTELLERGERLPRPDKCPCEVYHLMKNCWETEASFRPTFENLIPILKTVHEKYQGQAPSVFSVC
Sequence of Maternal embryonic leucine zipper kinase (Q14680 whole entry): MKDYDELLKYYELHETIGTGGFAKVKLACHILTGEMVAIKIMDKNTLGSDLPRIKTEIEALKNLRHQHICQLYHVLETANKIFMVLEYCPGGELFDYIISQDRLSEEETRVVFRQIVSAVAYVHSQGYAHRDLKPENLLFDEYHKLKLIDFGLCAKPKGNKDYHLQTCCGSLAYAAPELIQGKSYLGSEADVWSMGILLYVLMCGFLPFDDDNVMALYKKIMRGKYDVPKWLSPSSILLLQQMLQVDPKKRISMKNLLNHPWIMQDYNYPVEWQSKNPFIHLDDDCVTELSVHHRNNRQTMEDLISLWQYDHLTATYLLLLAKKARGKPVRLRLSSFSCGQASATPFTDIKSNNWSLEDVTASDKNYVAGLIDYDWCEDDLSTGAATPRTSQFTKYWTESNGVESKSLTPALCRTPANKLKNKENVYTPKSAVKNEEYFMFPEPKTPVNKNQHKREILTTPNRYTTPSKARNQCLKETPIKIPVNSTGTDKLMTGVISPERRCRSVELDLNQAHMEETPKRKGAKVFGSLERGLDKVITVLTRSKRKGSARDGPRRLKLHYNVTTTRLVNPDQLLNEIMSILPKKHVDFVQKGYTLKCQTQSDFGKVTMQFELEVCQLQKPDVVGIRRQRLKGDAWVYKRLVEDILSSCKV
Sequence of Hepatocyte growth factor receptor (P08581 whole entry): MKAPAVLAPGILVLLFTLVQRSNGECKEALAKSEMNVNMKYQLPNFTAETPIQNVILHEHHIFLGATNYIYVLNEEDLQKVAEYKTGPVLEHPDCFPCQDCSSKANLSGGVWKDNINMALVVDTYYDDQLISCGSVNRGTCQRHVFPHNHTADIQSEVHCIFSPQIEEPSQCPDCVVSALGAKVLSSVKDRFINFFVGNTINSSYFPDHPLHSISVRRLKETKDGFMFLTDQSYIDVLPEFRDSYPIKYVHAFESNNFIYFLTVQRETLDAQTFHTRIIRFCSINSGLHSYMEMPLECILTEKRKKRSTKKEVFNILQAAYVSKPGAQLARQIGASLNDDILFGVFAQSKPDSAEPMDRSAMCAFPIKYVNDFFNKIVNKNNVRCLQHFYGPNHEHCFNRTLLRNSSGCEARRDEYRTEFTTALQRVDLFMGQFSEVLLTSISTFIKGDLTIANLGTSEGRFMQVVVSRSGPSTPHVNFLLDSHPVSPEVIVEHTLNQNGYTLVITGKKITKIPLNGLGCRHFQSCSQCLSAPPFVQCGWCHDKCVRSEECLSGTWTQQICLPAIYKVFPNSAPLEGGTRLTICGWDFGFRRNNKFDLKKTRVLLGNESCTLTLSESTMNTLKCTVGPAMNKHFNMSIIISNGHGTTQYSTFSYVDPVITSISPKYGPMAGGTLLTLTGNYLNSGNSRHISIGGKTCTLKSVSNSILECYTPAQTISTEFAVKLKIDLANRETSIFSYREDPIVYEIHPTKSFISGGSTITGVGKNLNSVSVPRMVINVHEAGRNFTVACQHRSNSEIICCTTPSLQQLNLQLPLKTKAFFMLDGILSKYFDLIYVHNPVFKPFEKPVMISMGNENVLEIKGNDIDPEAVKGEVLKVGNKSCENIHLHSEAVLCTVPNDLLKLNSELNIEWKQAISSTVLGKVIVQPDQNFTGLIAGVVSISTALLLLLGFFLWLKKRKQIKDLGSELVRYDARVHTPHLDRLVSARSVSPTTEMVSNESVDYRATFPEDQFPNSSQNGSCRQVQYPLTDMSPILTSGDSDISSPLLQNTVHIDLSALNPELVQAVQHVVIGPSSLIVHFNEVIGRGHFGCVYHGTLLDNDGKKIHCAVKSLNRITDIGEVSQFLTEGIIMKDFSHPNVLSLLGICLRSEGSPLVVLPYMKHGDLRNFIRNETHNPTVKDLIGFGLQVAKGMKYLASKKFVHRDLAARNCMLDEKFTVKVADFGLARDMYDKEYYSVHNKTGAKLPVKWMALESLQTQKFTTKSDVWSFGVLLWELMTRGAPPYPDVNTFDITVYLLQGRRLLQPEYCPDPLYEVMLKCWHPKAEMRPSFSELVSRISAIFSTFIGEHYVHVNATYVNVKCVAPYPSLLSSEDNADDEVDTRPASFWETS
Sequence of Mitotic checkpoint serine/threonine-protein kinase BUB1 (O43683 whole entry, canonical isoform): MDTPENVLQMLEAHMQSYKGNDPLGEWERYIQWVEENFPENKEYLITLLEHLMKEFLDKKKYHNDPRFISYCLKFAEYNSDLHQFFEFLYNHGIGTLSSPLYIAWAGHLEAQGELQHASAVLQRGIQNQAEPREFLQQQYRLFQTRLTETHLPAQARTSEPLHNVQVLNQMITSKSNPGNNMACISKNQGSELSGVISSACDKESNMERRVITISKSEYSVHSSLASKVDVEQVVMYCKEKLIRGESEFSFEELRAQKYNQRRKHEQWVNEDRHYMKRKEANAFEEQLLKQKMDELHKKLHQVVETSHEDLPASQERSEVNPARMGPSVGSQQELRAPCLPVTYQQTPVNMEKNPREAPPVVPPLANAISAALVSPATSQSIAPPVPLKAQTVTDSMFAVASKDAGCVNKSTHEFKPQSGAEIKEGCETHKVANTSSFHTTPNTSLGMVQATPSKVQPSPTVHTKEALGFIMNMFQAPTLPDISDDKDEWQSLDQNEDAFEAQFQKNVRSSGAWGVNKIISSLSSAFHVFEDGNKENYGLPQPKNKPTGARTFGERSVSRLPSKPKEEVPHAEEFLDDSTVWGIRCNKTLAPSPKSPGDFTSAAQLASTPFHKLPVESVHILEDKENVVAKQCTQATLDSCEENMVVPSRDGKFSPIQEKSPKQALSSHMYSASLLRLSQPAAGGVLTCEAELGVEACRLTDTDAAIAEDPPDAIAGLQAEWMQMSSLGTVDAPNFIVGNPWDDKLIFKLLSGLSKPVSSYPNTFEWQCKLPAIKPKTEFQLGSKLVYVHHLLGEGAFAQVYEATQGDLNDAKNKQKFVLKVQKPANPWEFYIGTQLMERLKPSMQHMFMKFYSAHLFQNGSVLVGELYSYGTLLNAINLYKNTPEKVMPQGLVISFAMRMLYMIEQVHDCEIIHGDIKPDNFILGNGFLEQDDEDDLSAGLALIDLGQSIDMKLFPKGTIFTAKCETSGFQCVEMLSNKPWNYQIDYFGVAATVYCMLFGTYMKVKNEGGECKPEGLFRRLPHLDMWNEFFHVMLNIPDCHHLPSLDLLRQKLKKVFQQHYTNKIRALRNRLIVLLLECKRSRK
Sequence of Proto-oncogene tyrosine-protein kinase Src (P12931 2-536 limits assumed): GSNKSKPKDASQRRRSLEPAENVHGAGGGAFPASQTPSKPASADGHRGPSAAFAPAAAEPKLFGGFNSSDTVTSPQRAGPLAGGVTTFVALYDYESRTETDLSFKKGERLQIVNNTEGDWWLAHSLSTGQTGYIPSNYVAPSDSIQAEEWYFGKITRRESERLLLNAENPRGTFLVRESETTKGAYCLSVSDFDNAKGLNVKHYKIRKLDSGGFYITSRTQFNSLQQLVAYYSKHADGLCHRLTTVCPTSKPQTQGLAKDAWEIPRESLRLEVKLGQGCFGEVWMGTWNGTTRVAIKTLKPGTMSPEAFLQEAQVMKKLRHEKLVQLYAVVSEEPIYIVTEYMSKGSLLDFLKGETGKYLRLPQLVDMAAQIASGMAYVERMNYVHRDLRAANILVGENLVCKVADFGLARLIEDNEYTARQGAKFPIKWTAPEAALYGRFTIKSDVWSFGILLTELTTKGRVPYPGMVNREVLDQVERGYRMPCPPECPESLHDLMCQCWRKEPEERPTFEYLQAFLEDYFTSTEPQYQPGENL

As for `CC(=O)c1cnc2ccc(-c3cc(Cl)c(O)c(Cl)c3)nc2c1N[C@H]1CC[C@H](CN(C)C)CC1`, the Kd is 0.113 µM (active) in test [1]; 1.78 µM (active) in [2]; 0.057 µM (active) in test [3]; > 30 µM (inactive) in test [4]; > 30 µM (inactive) in [5]; > 30 µM (inactive) in [6]. In addition, the Kd is > 30 µM (inactive) in test [8]; > 30 µM (inactive) in test [9]; > 30 µM (inactive) on Adenosine kinase; > 30 µM (inactive) in [10]; > 30 µM (inactive) in test [11]; 0.011 µM (active) in test [12]. Moreover, the Kd in test [13] and in [14] was > 30 µM (inactive) in each case. This molecule gave a pKd in [7] of 7.06.
In the case of `CCn1cc(-c2ccnc3[nH]c(-c4cccc(CN(C)C)c4)cc23)c(-c2ccc(NC(=O)N(C)C)cc2)n1` [GSK-1070916], the Kd in test [1], in test [15], in [16], in [3], in test [4] and in test [5] was > 30 µM (inactive) each time. In addition, the Kd (in test [9]; on Adenosine kinase; in test [10]; in test [11]; in test [12]; in [14]) was > 30 µM (inactive) in each case. Besides, on Scaffold protein ILK, the Kd was > 30 µM (inactive).
Take `CN(C[C@@H]1COCCO1)S(=O)(=O)Nc1ccc2ccc3ncc(-c4cnn(C)c4)cc3c(=O)c2c1` [MK-2461]: the Kd in test [1], in test [2], in test [15], in test [16], in test [3] and in test [4] was > 30 µM (inactive) throughout. Also, the Kd (in [5]; in test [6]; in test [7]; in test [8]; in test [9]; at Adenosine kinase) was > 30 µM (inactive) each time. Also, the Kd (in [10]; in [11]; in test [13]; in [14]; at Scaffold protein ILK) was > 30 µM (inactive) each time.
For `CNC(=O)c1cc(Oc2ccc(NC(=O)Nc3cc(C(C)(C)C)nn3-c3ccc4ncccc4c3)c(F)c2)ccn1` [REBASTINIB], the Kd is > 30 µM (inactive) in test [1]; 0.055 µM (active) in test [2]; > 30 µM (inactive) in test [15]; > 30 µM (inactive) in [16]; > 30 µM (inactive) in test [3]; > 30 µM (inactive) in test [4]. Moreover, the Kd in test [5] was > 30 µM (inactive); in test [7] it was 2.71 µM (active); in [8], > 30 µM (inactive); in test [9] it was > 30 µM (inactive); on Adenosine kinase, > 30 µM (inactive); in [10], 0.007 µM (active). Moreover, the Kd in test [11] was > 30 µM (inactive); in test [12], 2.14 µM (active); in test [14], 0.126 µM (active); at Scaffold protein ILK, > 30 µM (inactive).
For `CN1CCN(CCOc2cc(OC3CCOCC3)c3c(Nc4c(Cl)ccc5c4OCO5)ncnc3c2)CC1` [SARACATINIB], the Kd in [2], in test [15], in [16], in test [3], in [4] and in test [5] was > 30 µM (inactive) in each case. Besides, the Kd in test [6] is > 30 µM (inactive); in [7], 1.12 µM (active); in test [8] it was > 30 µM (inactive); in [9], > 30 µM (inactive); on Adenosine kinase it was > 30 µM (inactive); in test [10] it was > 30 µM (inactive). Besides, the Kd (in test [11]; in [12]; in test [14]; on Scaffold protein ILK) was > 30 µM (inactive) throughout.
In the case of `CCS(=O)(=O)c1cccc(-c2cc(C(=O)NC3CCN(C)CC3)c(C)c3[nH]c4ncc(C)cc4c23)c1` [TAK-901], the Kd in [1] was 1.35 µM (active); in test [3], 0.899 µM (active); in [4], > 30 µM (inactive); in test [5] it was > 30 µM (inactive); in [6], > 30 µM (inactive); in test [7] it was > 30 µM (inactive). Moreover, the Kd (in [8]; in test [9]; on Adenosine kinase; in test [10]; in test [11]; in test [12]) was > 30 µM (inactive) throughout. Moreover, the equilibrium dissociation constant (Kd) is 0.092 µM (active) in test [13], > 30 µM (inactive) in test [14] and > 30 µM (inactive) at Scaffold protein ILK. This molecule gave a pKd in test [2] of 6.25.
On to `Cc1cc(Nc2ncnc3ccc(NC4=NC(C)(C)CO4)cc23)ccc1Oc1ccn2ncnc2c1` [TUCATINIB], for which the Kd in test [1], in [2], in test [15], in test [16], in test [3] and in test [4] was > 30 µM (inactive) in each case. Besides, the Kd (in test [5]; in [6]; in test [7]; in test [8]; in [9]; on Adenosine kinase) was > 30 µM (inactive) each time. The Kd (in test [10]; in [11]; in test [13]; in test [14]; on Scaffold protein ILK) was > 30 µM (inactive) each time.
